From ChEMBL document CHEMBL4350989, “Discovery of 2,4-diarylaminopyrimidine derivatives bearing dithiocarbamate moiety as novel FAK inhibitors with antitumor and anti-angiogenesis activities” (Eur J Med Chem, 2019)

Tests used:
[1] = test system: MCF7; experiment: Antiproliferative activity against human MCF7 cells overexpressing FAK assessed as reduction in cell viability after 72 hrs by MTS assay; conditions: MCF7, 72 h
[2] = test system: U-87 MG; experiment: Antiproliferative activity against human U87MG cells overexpressing FAK assessed as reduction in cell viability after 72 hrs by MTS assay
[3] = test system: HCT-116; experiment: Antiproliferative activity against human HCT116 cells overexpressing FAK assessed as reduction in cell viability after 72 hrs by MTS assay; conditions: HCT-116, 72 h
[4] = test system: PC-3; experiment: Antiproliferative activity against human PC3 cells overexpressing FAK assessed as reduction in cell viability after 72 hrs by MTS assay; conditions: PC-3, 72 h
[5] = test system: MCF-10A; experiment: Cytotoxicity against human MCF10A cells assessed as reduction in cell viability after 72 hrs by MTS assay

| SMILES | IC50 [1] [µM] | IC50 [2] [µM] | IC50 [3] [µM] | IC50 [4] [µM] | IC50 [5] [µM] |
| --- | --- | --- | --- | --- | --- |
| CNC(=O)c1ccccc1Nc1nc(Nc2ccc(C(=O)N3CCN(C(=S)SCCN4CCCC4)CC3)cc2)ncc1Cl | 0.16 | 0.2 | 0.01 | 0.22 |  |
| CNC(=O)c1ccc(Nc2ncc(C(F)(F)F)c(NCc3nccnc3N(C)S(C)(=O)=O)n2)cc1 [DEFACTINIB] | 8.97 to 9.76 | 10.2 to 10.3 | 2.65 to 3.02 | > 20 | 18.4 |
| CNC(=O)c1ccccc1Nc1nc(Nc2ccc(C(=O)N3CCN(C(=S)SCCN(C)C)CC3)cc2)ncc1Cl | 0.08 to 0.09 | 0.2 to 0.36 | 0.004 | 0.09 | 0.72 |
| CNC(=O)c1ccccc1Nc1nc(Nc2ccc(C(=O)N3CCN(C(=S)SCCC(=O)OC)CC3)cc2)ncc1Cl | 2.29 | 1.31 | 0.26 | 1.99 |  |
| CNC(=O)c1ccccc1Nc1nc(Nc2ccc(C(=O)N3CCN(C(=S)SCc4cccnc4)CC3)cc2)ncc1Cl | 0.39 | 1.53 | 0.03 | 0.45 |  |
| CNC(=O)c1ccccc1Nc1nc(Nc2ccc(C(=O)N3CCN(C(=S)SCCN4CCOCC4)CC3)cc2)ncc1Cl | 0.33 | 0.47 | 3.52 | 0.23 |  |
| CNC(=O)c1ccccc1Nc1nc(Nc2ccc(C(=O)N3CCN(C(=S)SCCOC)CC3)cc2)ncc1Cl | 0.3 | 0.61 | 0.04 | 0.46 |  |
| CNC(=O)c1ccccc1Nc1nc(Nc2ccc(C(=O)N3CCN(C(=S)SCc4ccccc4)CC3)cc2)ncc1Cl | > 20 | 3.36 | 0.05 | 17 |  |
| CNC(=O)c1ccccc1Nc1nc(Nc2ccc(C(=O)N3CCN(C(=S)SCc4ccccn4)CC3)cc2)ncc1Cl | 0.39 | 2.53 | 0.06 | 0.4 |  |
| CNC(=O)c1ccccc1Nc1ccnc(Nc2ccc(C(=O)N3CCN(C(=S)SCCN(C)C)CC3)cc2)n1 | 2.01 | 2.8 | 0.44 | 3.01 | 6.19 |
| CNC(=O)c1ccccc1Nc1nc(Nc2ccc(C(=O)N3CCN(C(=S)SCc4ccncc4)CC3)cc2)ncc1Cl | 0.77 | 1.7 | 0.06 | 0.36 |  |
| CNC(=O)c1ccccc1Nc1nc(Nc2ccc(C(=O)N3CCN(C(=S)SCCO)CC3)cc2)ncc1Cl | 0.11 | 0.71 | 0.02 | 0.24 |  |
| CNC(=O)c1ccccc1Nc1nc(Nc2ccc(C(=O)N3CCN(C(=S)SCCN(C)C)CC3)cc2)ncc1C | 0.08 | 0.28 | 0.01 | 0.27 | 1.08 |
| C=CCSC(=S)N1CCN(C(=O)c2ccc(Nc3ncc(Cl)c(Nc4ccccc4C(=O)NC)n3)cc2)CC1 | 1.38 | > 20 | 0.11 | 1.02 |  |
| CNC(=O)c1ccccc1Nc1nc(Nc2ccc(N3CCOCC3)cc2OC)ncc1Cl | 0.45 to 0.56 | 1.58 to 1.66 | 0.29 to 0.46 | 1.21 to 1.68 | 8.76 |

Continued by falling IC50 [1], values first:

| IC50 [1] [µM] | IC50 [2] [µM] | IC50 [3] [µM] | IC50 [4] [µM] | SMILES | IC50 [5] [µM] |
| --- | --- | --- | --- | --- | --- |
| 11.7 | > 20 | 3.78 | > 20 | CNC(=O)c1ccccc1Nc1nc(Nc2ccc(C(=O)N3CCN(C(=S)SCCc4ccccc4)CC3)cc2)ncc1Cl |  |
| 9.93 | 7.54 | 4.69 | 3.53 | CCOC(=O)CSC(=S)N1CCN(C(=O)c2ccc(Nc3ncc(Cl)c(Nc4ccccc4C(=O)NC)n3)cc2)CC1 |  |
| 7.17 | 1.73 | 0.03 | 0.17 | CNC(=O)c1ccccc1Nc1nc(Nc2ccc(C(=O)N3CCN(C(=S)SCCC#N)CC3)cc2)ncc1Cl |  |
| 0.54 | > 20 | 0.09 | 0.31 | CNC(=O)c1ccccc1Nc1nc(Nc2ccc(C(=O)N3CCN(C(=S)SCC4CCOCC4)CC3)cc2)ncc1Cl |  |
| 0.52 | 1.16 | 0.06 | 0.47 | CCOC(=O)C(=O)CSC(=S)N1CCN(C(=O)c2ccc(Nc3ncc(Cl)c(Nc4ccccc4C(=O)NC)n3)cc2)CC1 |  |
| 0.4 | 0.92 | 0.03 | 0.52 | CNC(=O)c1ccccc1Nc1nc(Nc2ccc(C(=O)N3CCN(C(=S)SCCS(C)(=O)=O)CC3)cc2)ncc1Cl |  |
| 0.36 | 1.61 | 0.16 | 0.92 | CNC(=O)c1ccccc1Nc1nc(Nc2ccc(C(=O)N3CCN(C(=S)SCCN(C)C)CC3)cc2)ncc1OC | 2.43 |
| 0.27 | 0.28 | 0.01 | 0.38 | CNC(=O)c1ccccc1Nc1nc(Nc2ccc(C(=O)N3CCN(C(=S)SCCN4CCCCC4)CC3)cc2)ncc1Cl |  |
| 0.22 | 0.62 | 0.01 | 0.26 | CNC(=O)c1ccccc1Nc1nc(Nc2ccc(C(=O)N3CCN(C(=S)SCCN4CCN(C)CC4)CC3)cc2)ncc1Cl |  |
| 0.21 | 2.74 | 0.05 | 0.69 | CNC(=O)c1ccccc1Nc1nc(Nc2ccc(C(=O)N3CCN(C(=S)SCCC4OCCO4)CC3)cc2)ncc1Cl |  |
| 0.16 | 0.69 | 0.03 | 0.36 | CNC(=O)c1ccccc1Nc1nc(Nc2ccc(C(=O)N3CCN(C(=S)SCCN(C)C)CC3)cc2)ncc1F | 1.75 |
| 0.11 | 0.87 | 0.03 | 0.2 | CNC(=O)c1ccccc1Nc1nc(Nc2ccc(C(=O)N3CCN(C(=S)SCC(C)O)CC3)cc2)ncc1Cl (stereo not given) |  |
